What was measured:
Assay type in all cases: in vivo
[1] = test system: mouse breast cancer 4T1 cells; experiment: Middle-aged and elderly patient model, 4T1 tumors in eight-month-old mice, r′3d/r′21d (Example 14, Table 19); details: single intratumoral injection, 50 l/mouse; for Tumor inhibition rate r′3: day 3 after administration; for Tumor inhibition rate r′21: day 21 after administration
Excerpt: (§1) V=0.5×a×b^2, wherein a and b represent the length and width of the local lesion, respectively; Volume of the local lesion (e.g. tumor):
(§2) Local lesion (e.g., tumor) proliferation rate (R)=TV/CV×100, wherein TV and CV are the local lesion volumes in the study group and negative control group, respectively;
(§3) The method for determining the effect of combined drug administration in animal experiments was Burgi method (Burgi Y. Pharmacology; Drug actions and reactions. Cancerres. 1978, 38(2), 284-285). The Burgi method was modified by Zhengjun JIN (Zhengjun JIN, Equal probability and curve and “Q50”, Journal of the Second Shanghai Medical College; 1981, 1, 75-86) with q calculated as: q=EA+B/(EA+EB−EA×EB). In the following examples of the present invention, the combinational pharmaceutical efficacies (drug efficacies) of drug A and drug B co-administration was determined by ratio q of actual pharmaceutical efficacy (drug efficacy)/theoretical pharmaceutical efficacy (drug efficacy) according to Zhengjun JIN method, as follows.
Eight-month-old mice were used as experimental subjects in the middle-aged and elderly patient model, 0.5×10^5 mouse breast cancer 4T1 cells/mouse were injected into the right axilla subcutaneously for transplantation tumor modeling, and the mean tumor volume of successfully modeled nude mice was 117.3 mm^3. The model animals were randomly divided into 18 groups. Each group was administered once by intratumoral injection according to the drug grouping in Table 19 with an injection volume of 50 l/mouse. The local lesion volume (V) was measured on day 3 and day 21 after drug administration, and the tumor inhibition rates (r′3d, r′21d) were calculated at each of time points relative to the negative control group, and the results were shown in the following Table. The drugs to be administered were prepared according to the conventional preparation method for aqueous solution or according to the preparation method in Example 1. The actual/expected ratio q3d for short-term drug efficacy and the actual/expected ratio […] for medium- and long-term drug efficacy were calculated based on the drug efficacies (r′3d, r′21d) at different times (day 3, day 21), respectively.

[2] = test system: gastric tumor cells (BGC823); experiment: Tumor inhibition in BGC823 tumor-bearing nude mice (Example 5, Table 8); details: intratumoral injection once, 150 μl/mouse, 7th day
Excerpt: as §3
Nude mice were used as experimental subjects, and gastric tumor cells (BGC823) were used as modeling cells, 1×10^5 cells/mouse were injected into the right axilla subcutaneously for transplantation tumor modeling, and the average tumor volume of successfully modeled nude mice was 164.4 mm^3. The model animals were randomly divided into 14 groups, and the drugs according to the pharmacological constitutions in Table 8 were administered via intratumoral injection. Each group was dosed once with an injection volume of 150 μl/mouse; wherein the pharmaceutical compositions of groups 5, 11 were semi-fluid, the pharmaceutical compositions of other groups are liquid. On the 7th day after drug administration, the animals were euthanized, and after dissection, the tumor tissue was taken out to determine the tumor weight, and the tumor inhibition rate (r) was calculated relative to the negative control group. Further, the actual efficacy/expected efficacy ratio q of a drug could also be calculated according to the therapeutic effect (tumor inhibition rate).

[3] = test system: mouse embryonic fibroblasts 3T3; experiment: Local lesion inhibition in 3T3 fibroblast nodule model in nude mice (Example 6, Table 9); details: dosed twice at interval of 2 days, 150 μl/mouse/time, 7th day after final administration
Excerpt: as §1, §2, §3
Nude mice were used as experimental subjects, and mouse embryonic fibroblasts 3T3 were used as modeling cells. 2×10^4 cells/mouse were injected into the right axilla subcutaneously for transplantation nodule modeling, and the average volume of tumor-like nodules in successfully modeled nude mice was 171.5 mm^3. The model animals were randomly divided into […], and the drugs were administered according to Table 9. Each group except for groups 21-24 were administered by intraperitoneal injection, intra-nodal injection. The drugs used in groups 21-24 were a composition of non-local administration dosage form (dosage form that a probiotic component and a co-administration substance could be administered separately). The administration route of series A was: intraperitoneal injection of probiotic component+intra-nodal injection of co-administration substance; and the administration route of series B was: intraperitoneal injection of co-administration substance+intra-nodal injection of probiotic component. Each group was dosed twice at an interval of 2 days, with an injection volume of 150 μl/mouse/time. On the 7th day after the final administration, the volume (V) of local lesions comprising fibroblasts was measured, and the relative local lesion inhibition rates (r′A, r′B) were calculated for series A and series B, respectively, as compared with the negative control group. Further, the actual drug efficacy/expected efficacy ratio q could also be calculated according to the therapeutic effect (local lesion inhibition rate).

[4] = test system: human hepatoma cells (HepG2); experiment: Tumor inhibition in HepG2 tumor-bearing nude mice, probiotic component/methylene blue (Example 7, Table 11); details: dosed twice, interval 7 days, 150 μl/mouse/time, 7th day after final administration, probiotic component = inactivated Saccharomyces cerevisiae
Excerpt: as §3
Nude mice were used as experimental subjects, and human hepatoma cells (HepG2) were used as modeling cells. […] The model animals were randomly divided into 13 groups, and the drugs were administered according to Table 11. […] Each group was dosed twice with an interval of 7 days, and the injection volume was 150 μl/mouse/time. On the 7th day after final administration, the animals were euthanized, and the tumor tissues were taken out after dissection to determine the tumor weight, and the tumor inhibition rate was calculated relative to the negative control group.

breast cancer 4T1 cells = experiment: Short-term tumor inhibition in 4T1 tumor-bearing BALB/c mice (Example 9, Table 14); details: dosed twice, 7th day after final administration
Excerpt: as §3
BALB/c mice were used as experimental subjects, and breast cancer 4T1 cells were used as modeling cells. 0.5×10^6 cells/mouse were injected into the right axilla subcutaneously for transplantation tumor modeling, and the average tumor volume of successfully modeled nude mice was 160.1 mm^3. The model animals were randomly divided into 21 groups, and the drugs were administered by intravenous injection (series A) and intratumoral injection (series B) according to the drugs and doses in Table 14, respectively. All the drugs administered were aqueous liquids, which were formulated according to the method of Example 1. Each group was dosed twice. On the 7th day after final administration, the animals were euthanized, and the tumor tissues were taken out after dissection to determine the tumor weight, and the tumor inhibition rates rA and rB were calculated relative to the corresponding negative control groups in series A and series B.

| Structure (SMILES) | Tumor inhibition rate r′3 [1] | Tumor inhibition rate r′21 [1] | Tumor inhibition rate r [2] | Tumor weight (x ± s) [2] | V (x ± s), volume of local lesions, series B ([3]; intra-nodal injection) | V (x ± s), volume of local lesions, series A ([3]; intraperitoneal injection) | Tumor inhibition rate [4] | Tumor weight (x ± s) [4] | Tumor weight (x ± s) ([4]; listed as 0.15% methylene blue) | Tumor inhibition rate ([4]; listed as 0.50% methylene blue) | Tumor weight (x ± s) ([4]; listed as 0.50% methylene blue) | Tumor inhibition rate ([4]; listed as 3% methylene blue) | Tumor weight (x ± s) ([4]; listed as 3% methylene blue) | tumor inhibition rate rA (breast cancer 4T1 cells; series A: intravenous injection) | tumor inhibition rate rB (breast cancer 4T1 cells; series B: intratumoral injection) |
| --- | --- | --- | --- | --- | --- | --- | --- | --- | --- | --- | --- | --- | --- | --- | --- |
| OC[C@H]1OC(O)[C@H](O)[C@@H](O)[C@@H]1O (some centres unmarked) [20% glucose aqueous solution] | 3.1% | 4.3% | – | – | – | – | – | – | – | – | – | – | – | – | – |
| OC[C@H]1OC(O)[C@H](O)[C@@H](O)[C@@H]1O (some centres unmarked) [30% glucose aqueous solution] | 20.8% | 8.2% | – | – | – | – | – | – | – | – | – | – | – | – | – |
| CN(C)c1ccc2nc3ccc(=[N+](C)C)cc-3sc2c1 [1% methylene blue, methylene blue] | – | – | 12.5% | 0.197 ± 0.062 g | 1.020 ± 0.210 cm^3 | 1.288 ± 0.205 cm^3 | 26.4% | 0.186 ± 0.096 g | 0.227 ± 0.107 g | 17.7% | 0.208 ± 0.115 g | 71.1% | 0.073 ± 0.033 g | 3.7% | 13.4% |

— patent publication US20230405063A1, “USE OF PROBIOTIC COMPONENT AND PHARMACEUTICAL COMPOSITION CONTAINING PROBIOTIC COMPONENT” (CHENGDU KUACHANGAOPU MEDICAL TECHNOLOGY CO., LTD., priority 2020, published 2023)
